Columns and labels:
[1] = racemate compared with either D or L isomer alone, U.S. Pat. No. 4,695,576; cited from earlier work
[2] = reported in U.S. Pat. No. 4,870,086; cited from earlier work
[3] = Content of ropivacaine base dissolved in the filtered solution, by HPLC against a control solution; assay type: physicochemical; settings: equimolar or less concentrated hydrochloric acid, even at about 60° C.
Procedure: Each resulting solution was warmed to about 50° C. and then cooled to room temperature with stirring for about 30 min., after which was added a suitable quantity of sodium chloride, and the total volume of each was made up to 25 mL. Osmolality of the filtered solution was determined using conventional freezing point osmometer. The pH of these solutions were in the range 3.2 to 3.5. The content of ropivacaine base dissolved in the solution was determined by HPLC against a control solution prepared by dissolving the same base in excess of hydrochloric acid.
Each resulting solution was warmed to about 50° C. with stirring for about 30 min., then cooled to room temperature, after which was added a suitable quantity of sodium chloride. The pH was then adjusted to 5.0 using sodium hydroxide solution, and then the volume was made up to 25 mL. The osmolality of the filtered solution was determined using conventional freezing point osmometer. The content of ropivacaine base dissolved in the solution was determined by HPLC against a control solution prepared by dissolving the same base in excess of hydrochloric acid.

[4] = Hygroscopicity and stability of ropivacaine base and its salts; assay type: physicochemical
[5] = optically pure form compared to the racemic mixture of bupivacaine; cited from earlier work

CCCCN1CCCCC1C(=O)Nc1c(C)cccc1C (racemic) [bupivacaine, racemic N-n-butylpipecolic acid-2,6-xylidide]
analgesic effects [1]: better analgesic effects

CCCN1CCCC[C@H]1C(=O)Nc1c(C)cccc1C.Cl [(L) N-n-propylpipecolic acid-2,6-xylidide hydrochloride]
hygroscopicity / stability [2]: hygroscopic and thus not stable

CCCN1CCCC[C@H]1C(=O)Nc1c(C)cccc1C [ropivacaine base, (L) N-n-propylpipecolic acid-2,6-xylidide]
dissolution in aqueous media [3]: did not yield a completely homogeneous solution | hygroscopicity [4]: not hygroscopic | stability compared with its hydrochloride or hydrochloride monohydrate salts [4]: much more stable | cardio-toxic potential [5]: reduced cardio-toxic potential

Reference: patent US20060270708A1, “Novel process for preparation of isotonic aqueous injection of ropivacaine” (Navinta LLC, priority 2005, published 2006)
